Measured values taken from ChEMBL document CHEMBL1201862, “PubChem BioAssay data set” (2004).
Activity calls are given as the source filed them.

Tests used:
[1] = target: T1, Polyadenylate-binding protein 1 (Homo sapiens, UniProt P11940); assay: PABP1 MLLE–PAM2 interaction inhibitors, dose response, miRNA deadenylation inhibitor project, biochemical, fluorescence polarization, Cy5-PAM2 peptide, secondary (AID 602260); type: functional; conditions: read-out: IC50_Mean
[2] = target: T1, Polyadenylate-binding protein 1; assay: PABP1 MLLE–PAM2 binding inhibitor potency, dose response, biochemical, fluorescence polarization, FITC-PAM2 peptide (AID 602259); type: functional; conditions: read-out: IC50_Mean
Cytochrome P450 2C9 = Cytochrome P450 2C9 (Homo sapiens, UniProt P11712)
Cytochrome P450 2D6 = Cytochrome P450 2D6 (Homo sapiens, UniProt P10635);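 also: CYP2D6 member of a cytochrome P450 panel assay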
[3] = target: Luciferin 4-monooxygenase (Photinus pyralis, UniProt P08659); assay: firefly luciferase enzyme inhibitors, dose response, biochemical, luminescence (AID 1891)
[4] = Luminescence Cell-Based Dose Confirmation HTS to Identify Inhibitors of Platelet Dense Granule Release. [Related pubchem assays: 1663 (Primary HTS), 1678 (Summary of Project)]; type: functional
Cytochrome P450 2C19 = Cytochrome P450 2C19 (Homo sapiens, UniProt P33261); assay: Cytochrome panel assay with activity outcomes. Panel member name: p450-cyp2c19 Compounds with AC50 equal or less than 10 uM are considered active; type: functional
[5] = HEp-2 cell cytotoxicity, dose response, cytotoxicity control for RSV inhibitor project, HTS (AID 2410); type: functional; conditions: human respiratory syncytial virus
[6] = Shn3 3'UTR reporter inhibitors, dose response, cell-based, Clone20 osteoblasts, firefly luciferase, cherry-picked (AID 624132); type: functional;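 also: firefly luciferase luminescence from reporter carrying the Shn3 3'UTR in osteoblasts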
[7] = control 3'UTR Renilla luciferase suppression, dose response, counter-screen for Shn3 inhibitor project, cell-based, Clone20-Shn3RL, cherry-picked (AID 624133); type: functional
Vero = assay: cells; type: functional; conditions: Chlorocebus sabaeus
[8] = target: T2, Corticotropin-releasing factor receptor 2/Corticotropin-releasing factor-binding protein (Homo sapiens, UniProt P24387+Q13324); assay: Dose Response confirmation of uHTS hits for small molecule antagonists of the CRF-binding protein and CRF-R2 receptor complex.; type: functional; conditions: read-out: IC50_Mean
T2 sequence (Q13324 whole entry): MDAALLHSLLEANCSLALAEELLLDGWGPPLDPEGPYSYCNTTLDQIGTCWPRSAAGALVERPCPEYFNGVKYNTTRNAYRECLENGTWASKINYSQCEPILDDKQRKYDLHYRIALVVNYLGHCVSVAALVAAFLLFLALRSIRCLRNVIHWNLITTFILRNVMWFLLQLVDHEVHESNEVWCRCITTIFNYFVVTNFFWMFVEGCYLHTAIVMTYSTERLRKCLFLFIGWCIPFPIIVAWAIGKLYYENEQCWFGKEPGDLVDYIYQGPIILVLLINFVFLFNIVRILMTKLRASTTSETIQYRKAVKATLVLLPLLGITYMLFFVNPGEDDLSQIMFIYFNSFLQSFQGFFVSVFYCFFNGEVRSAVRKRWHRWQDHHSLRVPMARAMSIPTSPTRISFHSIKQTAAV
T2 sequence (P24387 whole entry): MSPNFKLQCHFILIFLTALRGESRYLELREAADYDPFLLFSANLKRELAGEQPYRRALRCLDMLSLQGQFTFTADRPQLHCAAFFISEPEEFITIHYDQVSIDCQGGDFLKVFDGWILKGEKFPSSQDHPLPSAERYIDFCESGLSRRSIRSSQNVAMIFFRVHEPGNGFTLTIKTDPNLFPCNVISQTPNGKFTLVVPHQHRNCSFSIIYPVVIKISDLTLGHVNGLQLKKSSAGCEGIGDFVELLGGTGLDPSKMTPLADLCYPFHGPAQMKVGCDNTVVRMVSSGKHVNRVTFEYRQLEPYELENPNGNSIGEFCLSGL

[9] = target: T2, Corticotropin-releasing factor receptor 2/Corticotropin-releasing factor-binding protein; assay: activators of CRF receptor 2 with binding protein – uHTS hits, confirmation (AID 602473); type: functional; conditions: read-out: EC50_Mean
Cytochrome P450 1A2 = target: T3, Cytochrome P450 1A2 (Homo sapiens, UniProt P05177);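 also: PubChem cytochrome P450 panel assay, CYP1A2 panel member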
T3 sequence (P05177 whole entry): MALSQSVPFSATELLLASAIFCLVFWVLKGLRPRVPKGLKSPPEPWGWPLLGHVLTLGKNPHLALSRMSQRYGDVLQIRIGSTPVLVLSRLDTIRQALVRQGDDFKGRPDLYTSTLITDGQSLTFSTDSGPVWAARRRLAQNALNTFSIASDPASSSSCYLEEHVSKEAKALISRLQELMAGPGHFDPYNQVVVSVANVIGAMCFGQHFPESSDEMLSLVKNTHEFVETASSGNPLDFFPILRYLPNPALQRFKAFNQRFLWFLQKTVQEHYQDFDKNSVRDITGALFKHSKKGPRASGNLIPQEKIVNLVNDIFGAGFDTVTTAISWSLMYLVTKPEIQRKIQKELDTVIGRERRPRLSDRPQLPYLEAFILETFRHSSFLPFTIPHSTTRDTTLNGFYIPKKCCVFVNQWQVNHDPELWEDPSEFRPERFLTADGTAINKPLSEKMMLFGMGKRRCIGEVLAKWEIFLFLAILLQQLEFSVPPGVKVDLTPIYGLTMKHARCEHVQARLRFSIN

[10] = test system: Streptococcus sp. 'group A'; assay: growth inhibition of control SK(-) GAS strain, dose response, counter-screen for streptokinase expression inhibitor project, luminescence, kanamycin, BacTiterGlo, confirmation (AID 1900); type: functional, organism-based
Streptokinase A = target: T4, Streptokinase A (Streptococcus pyogenes serotype M1, UniProt P10520); assay: S. pyogenes streptokinase expression inhibitors, potency, dose response, plasminogen activation absorbance, OD405 (AID 1914); type: functional, Streptococcus pyogenes M1 GAS;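 also: secreted streptokinase activity via plasminogen activation per viability signal from cell pellet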
T4 sequence (P10520 whole entry): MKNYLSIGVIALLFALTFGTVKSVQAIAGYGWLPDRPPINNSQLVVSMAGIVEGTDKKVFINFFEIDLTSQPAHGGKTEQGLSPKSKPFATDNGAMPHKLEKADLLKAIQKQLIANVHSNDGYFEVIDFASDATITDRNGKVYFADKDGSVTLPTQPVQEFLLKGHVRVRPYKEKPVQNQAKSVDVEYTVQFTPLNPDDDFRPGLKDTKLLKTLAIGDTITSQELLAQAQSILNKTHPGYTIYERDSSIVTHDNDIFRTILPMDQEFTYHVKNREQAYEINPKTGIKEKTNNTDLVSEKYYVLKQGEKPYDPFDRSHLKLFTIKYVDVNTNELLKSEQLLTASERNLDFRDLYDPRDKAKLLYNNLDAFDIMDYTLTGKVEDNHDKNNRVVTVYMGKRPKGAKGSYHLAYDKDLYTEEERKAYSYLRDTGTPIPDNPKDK

Streptococcus = assay: Group A Streptococcus viability loss, dose response, counter-screen for streptokinase expression inhibitor project, luminescence, BacTiterGlo (AID 1915); type: functional, organism-based;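 also: potency for reduction of bacterial viability or growth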
[11] = target: T5, Heat shock factor protein 1 (Mus musculus, UniProt P38532); assay: HSF1 potentiators in luciferase reporter cells, confirmation, cell-based, NIH3T3, luminescence, dose retest (AID 435004); type: functional;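 also: stress induced by proteasome inhibitor MG132 added 30 min after compound; luciferase reporter driven by HSF1 response element in NIH3T3 cells; actives raise luminescence as potentiators of the MG132 stress response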
T5 sequence (P38532 whole entry): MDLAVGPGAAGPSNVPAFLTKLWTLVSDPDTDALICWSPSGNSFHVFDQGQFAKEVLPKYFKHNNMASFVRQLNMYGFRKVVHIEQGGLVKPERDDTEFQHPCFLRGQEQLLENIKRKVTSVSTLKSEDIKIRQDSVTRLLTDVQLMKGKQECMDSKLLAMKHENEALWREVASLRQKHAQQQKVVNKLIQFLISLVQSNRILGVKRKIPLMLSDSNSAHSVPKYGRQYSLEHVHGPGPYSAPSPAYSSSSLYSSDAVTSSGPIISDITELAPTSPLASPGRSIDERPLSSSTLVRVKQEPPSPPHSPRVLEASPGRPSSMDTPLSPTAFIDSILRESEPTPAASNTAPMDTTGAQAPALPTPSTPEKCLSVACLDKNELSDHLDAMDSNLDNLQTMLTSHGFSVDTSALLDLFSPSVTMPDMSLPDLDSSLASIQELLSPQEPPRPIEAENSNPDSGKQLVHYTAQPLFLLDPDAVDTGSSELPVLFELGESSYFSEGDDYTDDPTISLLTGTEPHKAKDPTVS

[12] = growth suppression of PTEN-null colon cells, dose response, cell-based, HCT116 PTEN knockout (AID 1047); type: functional;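 also: HCT116 colon tumor cells with PTEN knocked out; cells exposed to compound for 60 hours before readout; potency for loss of cell viability measured by luminescence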
[13] = growth suppression of beta-catenin-knockout colon cells, dose response, cell-based, HCT116, human colon tumor (AID 1045); type: functional;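 also: HCT116 colon tumor cells with beta catenin knocked out; cells exposed to compound for 60 hours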

Chain of Cytochrome P450 2C9 (P11712 whole entry): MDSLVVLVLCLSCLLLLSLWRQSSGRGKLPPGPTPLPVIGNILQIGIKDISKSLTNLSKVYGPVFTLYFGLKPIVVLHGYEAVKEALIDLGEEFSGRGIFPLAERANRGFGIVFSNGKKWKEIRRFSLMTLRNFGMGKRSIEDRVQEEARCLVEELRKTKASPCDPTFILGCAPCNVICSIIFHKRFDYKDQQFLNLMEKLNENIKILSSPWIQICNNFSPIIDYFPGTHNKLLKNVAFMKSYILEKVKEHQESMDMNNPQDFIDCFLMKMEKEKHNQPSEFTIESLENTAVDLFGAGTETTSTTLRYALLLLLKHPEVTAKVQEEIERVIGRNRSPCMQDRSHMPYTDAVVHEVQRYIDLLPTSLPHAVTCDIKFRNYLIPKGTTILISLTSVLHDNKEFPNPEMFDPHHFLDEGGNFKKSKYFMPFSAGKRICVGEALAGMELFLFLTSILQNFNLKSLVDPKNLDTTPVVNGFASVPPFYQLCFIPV
T1 sequence (P11940 whole entry): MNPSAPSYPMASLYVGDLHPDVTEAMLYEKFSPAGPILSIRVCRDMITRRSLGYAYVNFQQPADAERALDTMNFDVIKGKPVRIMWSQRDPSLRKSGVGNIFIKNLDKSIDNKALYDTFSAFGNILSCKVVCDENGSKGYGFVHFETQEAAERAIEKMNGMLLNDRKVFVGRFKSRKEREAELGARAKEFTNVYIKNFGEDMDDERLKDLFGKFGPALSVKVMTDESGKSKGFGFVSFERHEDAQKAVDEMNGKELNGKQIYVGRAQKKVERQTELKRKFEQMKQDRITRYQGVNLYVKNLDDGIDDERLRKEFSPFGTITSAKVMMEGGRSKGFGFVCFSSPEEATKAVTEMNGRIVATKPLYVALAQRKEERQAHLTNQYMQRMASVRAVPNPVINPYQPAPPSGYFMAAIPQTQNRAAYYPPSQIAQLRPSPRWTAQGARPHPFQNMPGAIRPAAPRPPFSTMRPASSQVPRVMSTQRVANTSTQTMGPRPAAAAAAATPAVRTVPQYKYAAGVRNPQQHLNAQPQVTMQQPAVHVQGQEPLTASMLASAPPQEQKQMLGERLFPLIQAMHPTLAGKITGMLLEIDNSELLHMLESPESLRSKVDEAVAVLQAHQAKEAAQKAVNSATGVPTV
Chain of Cytochrome P450 2C19 (P33261 whole entry): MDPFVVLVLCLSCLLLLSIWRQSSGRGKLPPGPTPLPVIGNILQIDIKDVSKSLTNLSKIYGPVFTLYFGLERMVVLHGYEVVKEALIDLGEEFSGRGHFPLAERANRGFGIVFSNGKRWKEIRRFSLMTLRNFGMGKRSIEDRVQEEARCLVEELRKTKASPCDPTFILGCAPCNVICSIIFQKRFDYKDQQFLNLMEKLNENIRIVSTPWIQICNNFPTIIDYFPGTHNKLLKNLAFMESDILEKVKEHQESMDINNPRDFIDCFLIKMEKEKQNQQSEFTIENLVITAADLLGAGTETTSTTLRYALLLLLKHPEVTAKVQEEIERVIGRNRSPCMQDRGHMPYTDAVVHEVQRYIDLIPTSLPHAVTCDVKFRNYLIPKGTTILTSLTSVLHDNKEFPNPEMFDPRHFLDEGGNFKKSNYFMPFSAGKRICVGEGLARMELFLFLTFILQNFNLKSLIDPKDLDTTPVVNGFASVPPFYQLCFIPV
Chain of Cytochrome P450 2D6 (P10635 whole entry): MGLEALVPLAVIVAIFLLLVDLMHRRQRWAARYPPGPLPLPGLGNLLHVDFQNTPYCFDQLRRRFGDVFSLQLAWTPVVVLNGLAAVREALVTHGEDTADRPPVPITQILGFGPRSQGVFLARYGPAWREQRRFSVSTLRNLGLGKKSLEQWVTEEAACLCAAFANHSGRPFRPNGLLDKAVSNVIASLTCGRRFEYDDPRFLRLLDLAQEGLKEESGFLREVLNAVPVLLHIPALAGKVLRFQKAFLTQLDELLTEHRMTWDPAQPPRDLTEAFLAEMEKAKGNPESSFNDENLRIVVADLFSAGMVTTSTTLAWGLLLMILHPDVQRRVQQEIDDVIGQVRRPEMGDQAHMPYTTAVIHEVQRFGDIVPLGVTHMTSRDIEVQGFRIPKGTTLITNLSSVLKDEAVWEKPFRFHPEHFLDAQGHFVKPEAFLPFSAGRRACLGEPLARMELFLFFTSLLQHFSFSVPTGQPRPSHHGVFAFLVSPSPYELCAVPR
Chain of Luciferin 4-monooxygenase (P08659 whole entry): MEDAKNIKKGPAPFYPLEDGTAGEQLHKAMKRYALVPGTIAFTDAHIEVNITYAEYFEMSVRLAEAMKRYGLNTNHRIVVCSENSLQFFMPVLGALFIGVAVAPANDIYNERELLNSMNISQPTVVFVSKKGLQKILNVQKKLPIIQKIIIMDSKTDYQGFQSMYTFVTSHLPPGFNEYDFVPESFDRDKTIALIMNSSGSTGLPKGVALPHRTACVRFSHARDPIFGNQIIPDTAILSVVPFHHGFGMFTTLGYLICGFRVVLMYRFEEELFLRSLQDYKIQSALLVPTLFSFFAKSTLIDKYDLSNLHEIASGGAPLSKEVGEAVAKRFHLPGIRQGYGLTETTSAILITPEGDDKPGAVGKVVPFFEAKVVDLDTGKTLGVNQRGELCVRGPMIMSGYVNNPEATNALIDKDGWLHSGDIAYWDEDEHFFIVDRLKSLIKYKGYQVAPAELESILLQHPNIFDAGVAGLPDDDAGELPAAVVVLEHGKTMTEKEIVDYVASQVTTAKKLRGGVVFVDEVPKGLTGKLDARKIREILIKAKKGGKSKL

O=C(NC(=S)Nc1ccc2c(c1)OCCO2)c1ccccc1
IC50 [1]: > 66 µM (inactive)
IC50 [2]: > 66 µM (inactive)

C/C(C[n+]1ccccc1)=N\N=C(N)N
AC50 (Cytochrome P450 2C9): inconclusive

COc1cc(C(=O)NCc2cccc3ccccc23)cc(Cl)c1OC
AC50 (Cytochrome P450 2D6): 15.8 µM (inconclusive)
AC50 (Cytochrome P450 2C9): inconclusive

COCCCNC(=O)Cn1nc(-c2ccccc2OC)ccc1=O
EC50 [3]: > 112 µM (not active)
EC50 [4]: > 112 µM (not active)
AC50 (Cytochrome P450 2C19): inconclusive
AC50 (Cytochrome P450 2C9): inconclusive

CSc1nc(C2CC2)cc(-c2cccs2)c1C#N
CC50 [5]: 11.8 µM (active)
AC50 (Cytochrome P450 2C19; read-out: AC50): 1.26 µM (inconclusive)
AC50 (Cytochrome P450 2C9): inconclusive

CCCc1ccc(C(=O)NNc2cc(Cl)ccc2Cl)cc1
AC50 [6]: 2.59 µM (active)
AC50 [7]: 10.1 µM (active)

O=C(NCC(c1ccco1)N1CCCCC1)c1ccc(COc2ccc(Cl)cc2)cc1 (centres undefined)
CC50 (Vero): > 25 µM (active)

CCCc1nnc(NC(=O)CN2C(=O)C3C4C=CC(C4)C3C2=O)s1 (centres undefined)
AC50 (Cytochrome P450 2C19; read-out: AC50): 17.8 µM (inconclusive)
AC50 (Cytochrome P450 2C9): inconclusive

Cc1nnc(C)n1/N=C/c1cccs1
AC50 (Cytochrome P450 2C19): inconclusive
IC50 [8]: > 47.1 µM (inactive)
EC50 [9]: > 53 µM (inactive)
AC50 (Cytochrome P450 1A2): 17.8 µM (inconclusive)

Nc1nc(N)c(/C=N/c2ccc(Br)cc2)c(Nc2ccc(Br)cc2)n1
EC50 [10]: 1.11 µM (active)
EC50 (Streptokinase A): > 150 µM (not active)
EC50 (Streptococcus): 3.09 µM (active)
EC50 [11]: 71.2 µM (active)
CC50 (Vero): > 25 µM (active)

Cc1cscc(C)c1=S
IC50 [1]: > 66 µM (inactive)
IC50 [2]: > 66 µM (inactive)

COc1ccccc1C1SCCN1S(=O)(=O)c1ccccc1 (centres undefined)
IC50 [8]: > 47.1 µM (inactive)
EC50 [9]: > 53 µM (inactive)

CC(C)CC(=O)/N=C1\SC2CS(=O)(=O)CC2N1Cc1ccccc1 (centres undefined)
EC50 [12]: 41.1 µM (active)
EC50 [13]: 75.3 µM (active)

Oc1ccc(Cc2nccc3cc(O)c(O)cc23)cc1O [PAPAVEROLINE]
AC50 (Cytochrome P450 1A2): 5.01 µM (inconclusive)
AC50 (Cytochrome P450 2C9): inconclusive
